Laboratory results taken from US6384056B1, “Heterocyclic thioesters or ketones for vision and memory disorders” (GPI NIL Holdings, Inc., priority 1998, dated 2002).
Marks after values point to notes of the source that are not given here.

Tests used:
[1] = system: retinal ganglion cells and optic nerve axons; test: optic nerve transection: retinal ganglion cell survival, optic nerve axon preservation and myelination 90 days after transection; type: in vivo, rat; details: for RGC Counts: mean density + SEM of Fluoro-gold labeled RGC in 400 μm × 400 μm gridfields; for ON Axon density: RT97 labeled axons in 200 μm × 200 μm region, mean + SEM; for Proximal optic nerve myelin basic protein Density: % areal coverage of optic nerve cross section, ± SEM; for increased ON axon density: adjusted for optic nerve diameter; for ON axon Count: calculated by multiplying axonal density by ON area; for Distal optic nerve myelin basic protein Density (myelin level): cross sectional area multiplied by myelin density
Description: All eyes and optic nerves stumps were removed.

[2] = system: retinal ganglion cells and optic nerve; test: retinal ischemia: degeneration of retinal ganglion cells, optic nerve axons and myelin; type: in vivo, rat
Description: Retinal ganglion cells were retrogradely labeled in adult rats by bilateral injection of fluorogold in their lateral geniculate nuclei. Labeled ganglion cells in the normal rat retina appear as white profiles against the dark background (FIG. 1A). Complete retinal ischemia was produced by infusing normal saline solution into the retinal vitreous cavity of each eye until the intraocular pressure exceeded arterial blood pressure. 28 days after the ischemic episode extensive degeneration of retinal ganglion cell was evidenced by massive reduction in the density of fluorogold labeled cells (FIG. 1B).

retina = test: streptozotocin induced diabetes: retinal neovascularization and neuronal loss; type: in vivo; details: 28 day treatment beginning 8 weeks after onset of streptozotocin induced diabetes
[3] = system: retinal ganglion cell axons; test: protection of retinal ganglion cell axons from degeneration 14 days after optic nerve transection (RT97); type: in vivo; details: ± SEM
Description: Efficacy of represetative compounds from different immunophilin ligand series in protecting retinal ganglion cell axons from degeneration following optic nerve transection set forth in Table 9.
Efficacy of representative compounds from different immunophilin ligand series in protecting retinal ganglion cell axons from degeneration following optic nerve transection

Clearance = type: in vitro ADME; details: Table 9 comments
[4] = system: streptozotocin-induced diabetic rat; test: sensory neuropathy in streptozotocin-induced diabetes: hot plate and tail flick; type: in vivo; details: lesioned animals treated for 6 weeks at 10 mg/kg s.c., treatment started six weeks after streptozotocin
Protocol: The procedure involved using Male Wistar rats which were given a single injection of streptozotocin (65 mg/kg i.v.). Blood glucose levels were determined weekly for the first three weeks and on the last week of the experiment. Animals were evaluated weekly for signs of sensory neuropathy using the conventional hot plate and tail flick apparatus test procedures.

aged mice = test: Morris watermaze spatial learning and memory in aged rodents; type: in vivo, mouse; details: aged impaired C57BL/6N-Nia mice, 10 mg/kg daily, retention testing after 3 weeks of dosing
Description: The Morris watermaze is widely used for assessing spatial memory formation and retention in experimental animals. The test depends on the animal's ability to utilize spatial visual information in order to locate a submerged escape platform in a water tank. It is important that the tank itself be as devoid of specific visual features as possible-thus, it is always circular in shape, the sides are kept smooth and in uniform dull colors, and the water is rendered opaque with nontoxic watercolor pigment or powdered milk. This is to ensure that the animal navigates only by the use of more distant visual cues, or by the use of intra-maze cues specifically provided by the experimenter. The tank is filled to a level which forces the animal to swim actively. Normal mice and rats react […] to the swimming part of the test and will climb onto, and remain on, an escape platform from which they are removed to a heated resting cage. If the platform is visible (i.e. above the surface), animals placed in the tank will quickly learn to home in on the platform and climb out onto it. […] Swim Distances (cm) were analyzed in a 7×5 ANOVA including Groups and Blocks (1-5) as factors in the analysis, treating Blocks as a repeated measure.

[5] = ONT/14 days GPI 1046, 90 days after transection
[6] = ONT/28 days GPI 1046, 90 days after transection
[7] = 28 days after 1 hour retinal ischemic episode, toluidine blue staining

## CCC(C)(C)C(=O)C(=O)N1CCC[C@H]1C(=O)OCCCc1cccnc1 [GPI 1046, 3-(3-pyridyl)-1-propyl (2s)-1-(3,3-dimethyl-1,2-dioxopentyl)-2-pyrrolidinecarboxylate]
[1]; Example 16: 10 mg/kg/day s.c. for 28 days, 90 days after transection, RT97
  preservation of axons of protected neurons in the proximal stump: preserved the axons of virtually all protected neurons
[1]; Example 16: 10 mg/kg/day s.c. for 28 days, sacrificed 90 days after transection
  ganglion cell population spared (perikaryal neuroprotection): 25%
[1]; GPI 1046 for the first 14 days after optic nerve transection, proximal stump, 90 days
  protection of optic nerve axons: 5.3%
[1]; ONT/14 days GPI 1046, 10 mg/kg/day sc, 90 days after transection
  RGC Counts: small but not significant increase
[1]; [5]
  % RGCs Rescued: 5.3%
  % surviving RGCs with ON axons: 33.6%
  Distal optic nerve stump shrinkage (cross sectional area vs sham): did not protect against shrinkage of the distal stump
  ON head area (% sham): 76% sham
  Spared RGC population: 20,275
  ON Axon density: 569 ± 23
[1]; ONT/14 days GPI 1046
  Proximal optic nerve myelin basic protein Density: 1.6 ± 3.0 SEM % recovery
  increased ON axon density: 1.5×
  ON axon Count: 6820
  Distal optic nerve myelin basic protein Density (myelin level): slightly increase the density of myelin
[1]; ONT/28 days GPI 1046, 10 mg/kg/day sc, 90 days after transection
  RGC Counts: 67.9 + 5.8*
[1]; [6]
  % surviving RGCs with ON axons: 81.4%
  Distal optic nerve stump shrinkage (cross sectional area vs sham): prevented cross sectional shrinkage of the distal stump
  ON head area (% sham): 95%* % sham
  Spared RGC population: 28,096*
  ON Axon density: significant increase in the density of large, and particularly medium and small caliber optic nerve axons
[1]; ONT/28 days GPI 1046
  Proximal optic nerve myelin basic protein Density: 70 ± 6.3 SEM % recovery
  increased ON axon density: 5.0×
  ON axon Count: 22,861*
  Distal optic nerve myelin basic protein Density (myelin level): 99% myelin % myelin preservation
[2]; 10 mg/kg s.c. 1 hour prior to ischemic episode and 10 mg/kg/day for next four days, 28 days after ischemia
  protection of retinal ganglion cells (density of fluorogold labeled cells): noticeable protection of a large proportion of the vulnerable ganglion cell population
[2]; [7]
  density of degenerating myelin figures: dramatically decreased the density of degenerating myelin figures
  protection of optic nerve axons from ischemic degeneration: protected the majority of optic nerve axons from degeneration
retina
  neovascularization in the PR, ONL, OPL and INL: reduced neovascularization
  neuronal loss in the ONL: did not appear to protect against neuronal loss in the ONL
retina; vs streptozotocin/vehicle
  loss of neurons in the INL and GCL: appeared to decrease the loss of neurons in both the INL and GCL
[3]
  RT 97 + RGC axon density 14 days after ON transaction (36 ON axons rescued): 60.5% ±3.9 SEM
Clearance
  Clearance: 63.8 µL/min
[4]
  latency in hot plate and tail flick tests: improvement in latency
Aged mice
  spatial memory performance (swim distance), retention testing: significantly enhanced spatial memory performance
